PubChem BioAssay (NCI)
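96-well plates; 48 h exposure; 5 concentrations. Endpoints by linear interpolation between flanking doses. Not reached: highest tested concentration assigned. GI50 = concentration required for 50% inhibition of growth. At the TGI there is no net growth.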

Experiments:
Test in all cases: DTP human tumour cell line panel, 48 h
MDA-MB-231 breast = test system: MDA-MB-231 breast
SW-620 colon = test system: SW-620 colon
KM12 colon = test system: KM12 colon
HCC-2998 colon = test system: HCC-2998 colon
HS 578T breast = test system: HS 578T breast
OVCAR-8 ovarian = test system: OVCAR-8 ovarian
RPMI-8226 leukemia = test system: RPMI-8226 leukemia
UO-31 renal = test system: UO-31 renal
OVCAR-5 ovarian = test system: OVCAR-5 ovarian
SR leukemia = test system: SR leukemia

SMILES	GI50 (MDA-MB-231 breast)	TGI (MDA-MB-231 breast)	GI50 (SW-620 colon)	TGI (SW-620 colon)	GI50 (KM12 colon)	TGI (KM12 colon)	GI50 (HCC-2998 colon)	TGI (HCC-2998 colon)	GI50 (HS 578T breast)	TGI (HS 578T breast)	GI50 (OVCAR-8 ovarian)	TGI (OVCAR-8 ovarian)	GI50 (RPMI-8226 leukemia)	TGI (RPMI-8226 leukemia)	GI50 (UO-31 renal)	TGI (UO-31 renal)	GI50 (OVCAR-5 ovarian)	TGI (OVCAR-5 ovarian)	GI50 (SR leukemia)	TGI (SR leukemia)
COc1cc2c3c(n(CCCN(C)CCO)c(=O)c2cc1OC)-c1cc2c(cc1C3=O)OCO2	14000 nM	49.9 µM	879 nM	> 55.2 µM	11400 nM	45.7 µM	7050 nM	> 52.1 µM	> 61300 nM	> 100 µM	13900 nM	> 78.8 µM	1450 nM	8.94 µM	3410 nM	> 57.9 µM	51700 nM	> 100 µM	–	–
CN(C)CCNc1nc2ccccc2c2c(=O)c3cc(F)ccc3sc12	1470 nM	2.88 µM	1670 nM	3.23 µM	1930 nM	3.56 µM	1680 nM	3.23 µM	–	–	–	–	2300 nM	5.18 µM	1400 nM	2.73 µM	1580 nM	2.95 µM	3.27 µM	> 100 µM
O=C1/C(=C/N2N=C(c3ccc4ccccc4c3)CC2c2ccccc2O)SC(=S)N1c1cccnc1 (stereo not drawn)	2290 nM	8.34 µM	365 nM	> 100 µM	473 nM	> 100 µM	3060 nM	> 100 µM	2550 nM	> 100 µM	2360 nM	> 100 µM	391 nM	> 100 µM	852 nM	> 100 µM	6190 nM	> 100 µM	–	–
C=CCC1(C)CCCCC1(O)CS(=O)c1ccccc1 (stereo not drawn)	–	–	–	> 100 µM	–	> 100 µM	–	> 100 µM	–	–	–	> 100 µM	–	> 100 µM	–	> 100 µM	–	> 100 µM	–	> 100 µM
Nc1ccc(C2=N/C(=C\c3cccc(N)c3)C(=O)O2)cc1	–	–	–	> 100 µM	–	> 100 µM	–	> 100 µM	–	–	–	> 100 µM	–	–	–	> 100 µM	–	> 100 µM	–	> 100 µM
COc1cc(-c2nnc3n2NC=C(C(=O)O)S3)cc(OC)c1OC	–	–	–	> 62 µM	–	> 100 µM	–	> 100 µM	–	–	–	> 100 µM	–	> 68.7 µM	–	> 100 µM	–	> 100 µM	–	> 100 µM
Cc1ccc2c(c1-c1ccccc1)C(=O)OC2	–	–	–	> 100 µM	–	> 100 µM	–	> 100 µM	–	–	–	> 100 µM	–	> 100 µM	–	> 100 µM	–	–	–	> 100 µM
Oc1ccc(Oc2cnc3ccccc3n2)cc1	> 100000 nM	> 100 µM	> 100000 nM	> 100 µM	45000 nM	> 100 µM	> 100000 nM	> 100 µM	–	–	> 100000 nM	> 100 µM	> 100000 nM	> 100 µM	66600 nM	> 100 µM	> 100000 nM	> 100 µM	78.5 µM	> 100 µM
Cc1c2c(C(N)=O)nccc2c(C)c2c1c1ccccc1n2Cc1ccccc1	–	28 µM	–	50 µM	–	72.6 µM	–	73.1 µM	–	31.5 µM	–	31.3 µM	–	61.2 µM	–	37.6 µM	–	> 100 µM	–	–
CCOC(=O)C1=C(Nc2ccc(Br)cc2)OCC1=O	–	–	–	> 100 µM	–	> 100 µM	–	> 100 µM	–	–	–	> 100 µM	–	–	–	> 100 µM	–	–	–	> 100 µM
COc1cc(C(=O)O[C@H](C(N)=O)[C@]2(C)CO2)c2cccc(C)c2c1	16 nM	1.29 µM	< 10 nM	1.72 µM	–	–	25.7 nM	0.54 µM	130 nM	15.5 µM	< 10 nM	0.438 µM	–	–	40.4 nM	0.33 µM	766 nM	6.01 µM	–	–
Cn1cc(-c2csc(-c3cn(C)c4ccc(F)cc34)n2)c2cnccc21	1750 nM	3.26 µM	1880 nM	3.59 µM	1790 nM	3.36 µM	1860 nM	3.55 µM	2360 nM	5.12 µM	2020 nM	3.93 µM	1980 nM	4.14 µM	1640 nM	3.09 µM	1680 nM	3.15 µM	–	–
NC(=S)N/N=C1\CCCC\C1=C/c1ccccc1	–	–	–	> 100 µM	–	> 100 µM	–	> 100 µM	–	–	–	> 100 µM	–	38.2 µM	–	> 100 µM	–	70.4 µM	–	–
COC(=O)c1c[nH]cc1CCCCc1c[nH]cc1C(=O)OC	–	–	–	> 100 µM	–	> 100 µM	–	> 100 µM	–	–	–	> 100 µM	–	–	–	–	–	> 100 µM	–	> 100 µM
Cc1c(Cl)cccc1NC(=O)c1cccc([N+](=O)[O-])c1O	–	–	–	> 100 µM	–	> 68.5 µM	–	78.6 µM	–	–	–	> 100 µM	–	> 60 µM	–	40.5 µM	–	> 93.8 µM	–	74.8 µM
CCc1cccc(C)c1NC(=O)CC1C(=O)Nc2ccccc2S1=O (stereo not drawn)	–	–	–	> 100 µM	–	> 100 µM	–	> 100 µM	–	–	–	> 100 µM	–	> 100 µM	–	> 100 µM	–	> 100 µM	–	> 100 µM
CC(C)(C)OC(=O)N1C2CCCC23O[C@@H]1c1cc2c(cc1C3=O)OCO2 (stereo partly drawn)	–	–	–	> 100 µM	–	> 100 µM	–	–	–	–	–	> 100 µM	–	–	–	> 100 µM	–	> 100 µM	–	> 100 µM
CCOC(=O)C(C)(c1c(C)[nH]c2ccccc12)c1c(C)[nH]c2ccccc12	–	–	–	40.8 µM	–	33.2 µM	–	45.2 µM	–	–	–	81.7 µM	–	46.2 µM	–	35 µM	–	35.5 µM	–	–
CCC[CH2][Sn]1([CH2]CCC)[O]CC(COc2c(Cl)cc(Cl)cc2Cl)[O]1 (stereo not drawn)	–	–	1130 nM	2.62 µM	1800 nM	3.54 µM	1510 nM	2.95 µM	–	–	1120 nM	2.37 µM	780 nM	3.72 µM	1680 nM	3.21 µM	2020 nM	3.46 µM	–	–
